Test results taken from patent US9598667B2, “Use of metal ions for modulation of protein glycosylation profiles of recombinant proteins” (AbbVie, Inc., priority 2013, dated 2017).

Tests used:
[1] = system: N-glycan glycosylation profile of DVD-Ig (DVD 1) expressed in CHO cells; experiment: N-glycan oligosaccharide profile of DVD-Ig (DVD 1) from shake flask culture; assay type: cell-based, Chinese Hamster
Protocol: Sodium citrate was included to provide additional evidence that the impact to the oligosaccharide profile with the prior experiments was a result of the iron addition. All conditions were performed in triplicate.

[2] = system: N-glycan glycosylation profile of Antibody 1 expressed in CHO cells; experiment: N-glycan oligosaccharide profile of Antibody 1 from shake flask culture (2-AB labelling, normal phase HPLC); details: for galactosylation: Example 7
Excerpt: (§1) To test the effect of metal ions of protein glycosylation, recombinant Chinese Hamster Ovary (CHO) cell lines (CHO DUX-B11 origin based on a DHFR (dihydrofolate reductase) expression system) expressing two different humanized monoclonal antibodies (Antibody 1, Antibody 2) or a dual variable domain immunoglobulin (DVD-Ig) were shake flask cultured in chemically defined basal medium (CDBM) and chemically defined feed medium (CDFM) supplemented with selected iron compounds. The cell lines were serially expanded through separate seed train inoculums to generate enough cells for inoculation. All supplemented cultures were performed in triplicate unless otherwise indicated.
The glycosylation profile of the recombinantly expressed proteins was then determined using standard procedures. Approximately 200 μg of Protein A purified samples from Cell Lines 1 and 2 were then treated with N-glycanase at 37° C. overnight to remove the N-glycans from the protein. The protein was precipitated and the supernatant was taken for subsequent chemical derivatization of the reducing end of the released glycans with 2-aminobenzamide (2-AB) dye. Following the derivatization step, the excess labeled was removed using clean up cartridges and the samples were analyzed using normal phase HPLC with fluorescent detection. Mobile phase A was 100% acetonitrile and mobile phase B was 50 mM ammonium formate pH 4.4. The glycan were eluted from a polyamide column (Prozyme, Hayward, Calif.) using a shallow gradient. The labeled glycans were detected using a fluorescence detector with an excitation wavelength of 330 nm and an emission wavelength of 420 nm.
Concentrations of the respective iron compounds were chosen so as to minimize any potential adverse impacts on cell growth and productivity, but still facilitate a measurable impact on the glycoform profile. […] Cell culture process performance indicators were monitored and measured throughout the respective cultures. Viable cell density, cell viability, harvest titer, and harvest N-glycan oligosaccharide data was measured and reported.
By introducing iron to the culture via the feed medium, exposure to iron would be more gradual over the length of the culture. The impact to Antibody 1 was evaluated in triplicate shake flasks as described previously.
All evaluations were performed in triplicate in shake flasks with the cell line expressing Antibody 1.
The next set of experiments explored if iron transport into the cell or the galactose availability were the limiting factors. Recombinant transferrin (rTf) was added to triplicate shake flask cultures with the cell line expressing Antibody 1 with varying concentrations of ferric citrate. An independent experiment was performed with the same cell line to also determine if galactose supplementation in addition to iron and transferrin would enhance the galactosylation with triplicate shake flasks for each condition.

[3] = system: N-glycan glycosylation profile of Antibody 1; experiment: N-glycan oligosaccharide profile of Antibody 1 in bioreactors; assay type: cell-based, Chinese Hamster; details: pH 6.90, dissolved oxygen 40% air saturation, two independent experiments
Protocol: Prior experiments included iron supplementation in shake flask cultures. Experiments with the cell line expressing Antibody 1 and with a cell line expressing a different DVD-Ig (denoted DVD 2, also called ABT-122) than discussed previously were carried out to confirm the impact from iron supplements would be observed in bioreactors. Operating conditions were similar to shake flask experiments, but now included pH control at pH 6.90 and dissolved oxygen control at a setpoint of 40% air saturation. Antibody 1 bioreactors were run in triplicate with the exception of the 0.08 mM FC condition. DVD 2 bioreactors were run in duplicate.

[4] = system: CHO cell line expressing Antibody 2; experiment: Shake flask fedbatch culture performance, cell line expressing Antibody 2; assay type: cell-based, Chinese Hamster; details: 0.1 or 1.0 mM in basal medium; vs unsupplemented control
Excerpt: as §1
Absolute concentrations were assigned with respect to reference standard calibration curves.
The unsupplemented control was performed in duplicate.

[5] = Example 2, vs unsupplemented control

## O=C([O-])CC(O)(CC(=O)[O-])C(=O)[O-].[Na+].[Na+].[Na+] [Sodium citrate, reference compound]
[1]; 0.5 mM, vs unsupplemented control
  effect on oligosaccharide profile: no effect on the oligosaccharide profile

## O=C[C@H](O)[C@@H](O)[C@@H](O)[C@H](O)CO [galactose]
[2]; supplemented with iron (ferric citrate)
  galactosylation: increased galactosylation is observed overall
[2]; Example 8, galactose supplementation with ferric citrate
  dose dependence of galactosylation: dose-dependence is observed

## ferric citrate
[3]
  increase in total NA1F and NA2F species: dose-dependence effect
[4]
  increase of peak viable cell density: 4 ×10^6 cells/mL
[2]; Example 2, concentration dependence below 1.0 mM
  N-glycan glycoform profile (overall result): very similar results to ferric nitrate
[1]; increased concentration (0.1, 1 mM)
  galactosylation: increased galactosylation

## ferrous sulfate
[2]; [5]
  increase in NA2F species: 3 fold
  increase in total NA1F species: 3 fold

## transferrin: Recombinant transferrin (rTf) added to shake flask cultures
[2]; added with varying concentrations of ferric citrate, without galactose
  galactosylation: no impact was observed to the galactosylation
